From patent publication US7528138B2, “Pyrazolo[1,5-a]pyrimidines useful as inhibitors of protein kinases” (Vertex Pharmaceuticals Incorporated, priority 2004, dated 2009)
pKi: −log10 of the molar value.

Legend:
c-Met = c-Met (Homo sapiens, UniProt P08581); test: c-Met Inhibition Assay, coupled enzyme system; type: biochemical; conditions: enzyme inhibition data (Ki), Table 11
Summary of the method: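 Pyruvate kinase/lactate dehydrogenase-coupled NADH assay in HEPES pH 7.5 with 80 nM c-Met, 200 μM ATP and 10 μM polyGluTyr at 30° C. Compound (0.006–12.5 μM final, 12-point) preincubated 10 min before ATP start; rates over 10 min gave Ki.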

JAK3 = target: T1, JAK3 (Homo sapiens, UniProt P52333); test: JAK3 Inhibition Assay, 33P incorporation; type: biochemical; conditions: enzyme inhibition data (Ki), Table 11
T1 sequence (P52333 1-1124): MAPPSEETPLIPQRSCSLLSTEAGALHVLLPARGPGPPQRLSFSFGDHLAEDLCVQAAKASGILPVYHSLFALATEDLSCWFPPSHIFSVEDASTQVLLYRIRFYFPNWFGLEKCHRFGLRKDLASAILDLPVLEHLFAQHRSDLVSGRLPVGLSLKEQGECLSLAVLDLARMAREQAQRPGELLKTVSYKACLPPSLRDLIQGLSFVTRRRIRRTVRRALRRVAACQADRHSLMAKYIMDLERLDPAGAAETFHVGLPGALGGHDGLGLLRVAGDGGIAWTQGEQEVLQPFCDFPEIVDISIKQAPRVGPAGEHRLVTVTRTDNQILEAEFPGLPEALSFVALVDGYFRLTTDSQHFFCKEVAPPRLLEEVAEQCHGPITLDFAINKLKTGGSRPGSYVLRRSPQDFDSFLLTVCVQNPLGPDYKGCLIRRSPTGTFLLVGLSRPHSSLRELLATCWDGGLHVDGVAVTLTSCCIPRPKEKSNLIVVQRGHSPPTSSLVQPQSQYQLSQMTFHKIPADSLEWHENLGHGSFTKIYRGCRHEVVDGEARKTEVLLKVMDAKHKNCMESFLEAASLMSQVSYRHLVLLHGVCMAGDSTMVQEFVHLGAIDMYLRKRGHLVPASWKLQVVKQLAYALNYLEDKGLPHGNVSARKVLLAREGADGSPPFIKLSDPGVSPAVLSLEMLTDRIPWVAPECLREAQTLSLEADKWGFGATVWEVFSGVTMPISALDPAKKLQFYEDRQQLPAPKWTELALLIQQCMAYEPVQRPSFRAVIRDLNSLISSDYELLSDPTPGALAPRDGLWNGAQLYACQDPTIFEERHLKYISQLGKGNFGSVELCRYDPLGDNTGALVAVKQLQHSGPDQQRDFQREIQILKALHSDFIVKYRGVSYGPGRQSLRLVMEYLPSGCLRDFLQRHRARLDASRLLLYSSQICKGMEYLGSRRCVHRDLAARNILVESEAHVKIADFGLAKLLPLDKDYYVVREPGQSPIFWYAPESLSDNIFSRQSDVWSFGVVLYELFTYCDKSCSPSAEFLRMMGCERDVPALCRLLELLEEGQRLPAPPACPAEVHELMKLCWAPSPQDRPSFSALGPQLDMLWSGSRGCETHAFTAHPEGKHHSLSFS
Summary of the method: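 Recombinant JAK3 at 1 nM in HEPES pH 7.4 buffer with 10 mM MgCl2, 1 mM DTT and 0.01% BSA. Substrates were 5 μM ATP (200 uCi/μmole) and 1 μM poly(Glu)4Tyr, reacted 20 min at 25 °C. Stopped with TCA, and 33P incorporation counted on glass fiber filters.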

Sequence of c-Met (P08581 25-1390): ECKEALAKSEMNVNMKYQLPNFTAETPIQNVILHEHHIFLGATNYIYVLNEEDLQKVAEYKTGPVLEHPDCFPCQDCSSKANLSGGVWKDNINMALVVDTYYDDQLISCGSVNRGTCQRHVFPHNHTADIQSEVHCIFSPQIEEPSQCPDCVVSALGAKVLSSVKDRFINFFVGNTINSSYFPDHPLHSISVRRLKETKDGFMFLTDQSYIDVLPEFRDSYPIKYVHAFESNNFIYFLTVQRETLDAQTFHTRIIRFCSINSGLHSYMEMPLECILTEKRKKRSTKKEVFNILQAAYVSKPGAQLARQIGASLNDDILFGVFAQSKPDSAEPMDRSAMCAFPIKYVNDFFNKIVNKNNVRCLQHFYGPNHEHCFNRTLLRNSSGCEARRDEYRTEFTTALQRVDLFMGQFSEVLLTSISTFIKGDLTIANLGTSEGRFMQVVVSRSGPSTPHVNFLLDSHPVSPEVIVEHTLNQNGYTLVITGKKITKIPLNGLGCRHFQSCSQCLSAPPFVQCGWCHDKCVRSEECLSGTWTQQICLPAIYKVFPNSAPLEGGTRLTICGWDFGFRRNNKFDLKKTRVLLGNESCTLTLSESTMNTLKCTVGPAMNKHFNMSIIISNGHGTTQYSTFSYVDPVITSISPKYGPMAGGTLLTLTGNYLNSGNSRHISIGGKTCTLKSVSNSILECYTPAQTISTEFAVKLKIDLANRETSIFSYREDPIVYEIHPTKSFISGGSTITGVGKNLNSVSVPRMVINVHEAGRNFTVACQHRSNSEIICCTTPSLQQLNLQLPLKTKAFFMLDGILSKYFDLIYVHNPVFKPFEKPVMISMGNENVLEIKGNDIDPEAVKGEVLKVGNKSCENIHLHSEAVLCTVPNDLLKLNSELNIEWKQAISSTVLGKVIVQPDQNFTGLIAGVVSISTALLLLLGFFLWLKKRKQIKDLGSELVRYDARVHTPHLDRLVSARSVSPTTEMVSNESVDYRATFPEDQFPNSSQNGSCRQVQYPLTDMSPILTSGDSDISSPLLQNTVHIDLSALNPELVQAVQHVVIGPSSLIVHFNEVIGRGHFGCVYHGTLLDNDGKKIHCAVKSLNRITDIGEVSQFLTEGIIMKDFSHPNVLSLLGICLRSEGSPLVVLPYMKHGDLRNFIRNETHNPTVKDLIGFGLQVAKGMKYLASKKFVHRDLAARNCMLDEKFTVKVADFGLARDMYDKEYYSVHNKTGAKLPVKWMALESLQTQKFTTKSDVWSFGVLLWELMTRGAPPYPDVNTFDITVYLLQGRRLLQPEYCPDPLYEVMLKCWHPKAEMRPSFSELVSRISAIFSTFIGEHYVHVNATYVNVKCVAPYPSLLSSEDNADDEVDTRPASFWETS

| pKi (c-Met) | pKi (JAK3) | Structure (SMILES) |
| --- | --- | --- |
| > 6.30 | < 5.30 | Nc1nn2cc(-c3ccc(C(=O)NC4CCCO4)cn3)cnc2c1-c1ccccn1 (centres unmarked) [Compound V-96] |
| > 6.30 | < 5.30 | Nc1nn2cc(-c3cccc(C(=O)N4CCC(N)CC4)n3)cnc2c1-c1ccccn1 [Compound V-104] |
| > 6.30 | < 5.30 | Cc1ccc(-c2c(N)nn3cc(-c4ccncc4)cnc23)nc1 [Compound V-132] |
| > 6.30 | 5.30 to 6.30 | Cc1ccnc(-c2c(N)nn3cc(-c4ccncc4)cnc23)c1 [Compound V-133] |
| 5.30 to 6.30 | < 5.30 | Nc1nn2cc(-c3ccncc3)cnc2c1-c1ncccc1OCc1ccccc1 [Compound V-134] |
| 5.30 to 6.30 | < 5.30 | Cc1cccnc1-c1c(N)nn2cc(-c3ccncc3)cnc12 [Compound V-135] |
| > 6.30 | < 5.30 | CC(C)N1CCN(c2ccc(-c3cnc4c(-c5ccccn5)c(N)nn4c3)cn2)CC1 [Compound V-146] |
| > 6.30 | < 5.30 | Nc1nn2cc(-c3ccc(N4CCNCC4)nc3)cnc2c1-c1ccccn1 [Compound V-151] |
| > 6.30 | < 5.30 | Nc1nn2cc(-c3ccc(N4CCC[C@H]4CN4CCCC4)nc3)cnc2c1-c1ccccn1 [Compound V-152] |
| > 6.30 | < 5.30 | COCCNc1ccc(-c2cnc3c(-c4ccccn4)c(N)nn3c2)cn1 [Compound V-156] |
| > 6.30 | 5.30 to 6.30 | CN(C)CCNc1ccc(-c2cnc3c(-c4ccccn4)c(N)nn3c2)cn1 [Compound V-159] |
| > 6.30 | < 5.30 | CN1CCCN(c2ccc(-c3cnc4c(-c5ccccn5)c(N)nn4c3)cn2)CC1 [Compound V-160] |
| > 6.30 | < 5.30 | Nc1nn2cc(-c3ccc(N4CCC(N)CC4)nc3)cnc2c1-c1ccccn1 [Compound V-165] |
| > 6.30 | < 5.30 | CCN1CCN(c2ccc(-c3cnc4c(-c5ccccn5)c(N)nn4c3)cn2)CC1 [Compound V-166] |
| > 6.30 | 5.30 to 6.30 | Nc1nn2cc(-c3ccc(N4CCC[C@@H]4CN4CCCC4)nc3)cnc2c1-c1ccccn1 [Compound V-176] |
| > 6.30 | 5.30 to 6.30 | Nc1nn2cc(-c3ccc(C(=O)N4CCC[C@H]4CN4CCCC4)cn3)cnc2c1-c1ccccn1 [Compound V-177] |
| 5.30 to 6.30 | < 5.30 | Cc1cccc(-c2c(N)nn3cc(-c4ccncc4)cnc23)n1 [Compound V-178] |
| > 6.30 | > 6.30 | Nc1nn2cc(-c3ccncc3)cnc2c1-c1cc(N2CCCCC2)ncn1 [Compound V-179] |
| > 6.30 | > 6.30 | CCN(CC)c1cc(-c2c(N)nn3cc(-c4ccncc4)cnc23)ncn1 [Compound V-180] |
| > 6.30 | > 6.30 | CNc1cc(-c2c(N)nn3cc(-c4ccncc4)cnc23)ncn1 [Compound V-181] |
| > 6.30 | > 6.30 | CC(C)Nc1cc(-c2c(N)nn3cc(-c4ccncc4)cnc23)ncn1 [Compound V-182] |
| > 6.30 | 5.30 to 6.30 | Nc1nn2cc(-c3ccncc3)cnc2c1-c1cc(NC2CCCCC2)ncn1 [Compound V-183] |
| > 6.30 | 5.30 to 6.30 | Nc1nn2cc(-c3ccncc3)cnc2c1-c1cc(NCC2CCCCC2)ncn1 [Compound V-184] |
| > 6.30 | > 6.30 | CC(C)CNc1cc(-c2c(N)nn3cc(-c4ccncc4)cnc23)ncn1 [Compound V-185] |
| > 6.30 | 5.30 to 6.30 | Nc1nn2cc(-c3ccc(CO)cc3)cnc2c1-c1ccccn1 [Compound V-194] |
| > 6.30 | 5.30 to 6.30 | NCc1ccc(-c2cnc3c(-c4ccccn4)c(N)nn3c2)cc1 [Compound V-195] |
| > 6.30 | < 5.30 | NCc1cccc(-c2cnc3c(-c4ccccn4)c(N)nn3c2)c1 [Compound V-202] |
| 5.30 to 6.30 | 5.30 to 6.30 | Nc1nn2cc(-c3ccc(CN4CCOCC4)cc3)cnc2c1-c1ccccn1 [Compound V-208] |
| > 6.30 | < 5.30 | Nc1nn2cc(-c3ccc4[nH]ccc4c3)cnc2c1-c1ccccn1 [Compound V-212] |

Continued, compound first:

| Structure (SMILES) | pKi (c-Met) | pKi (JAK3) |
| --- | --- | --- |
| COc1ccccc1-c1cnc2c(-c3ccccn3)c(N)nn2c1 [Compound V-14] | 5.30 to 6.30 | < 5.30 |
| CS(=O)(=O)Nc1cccc(-c2cnc3c(-c4ccccn4)c(N)nn3c2)c1 [Compound V-18] | > 6.30 | < 5.30 |
| CC(C)CN(C)C(=O)c1ccc(-c2cnc3c(-c4ccccn4)c(N)nn3c2)nc1 [Compound V-97] | > 6.30 | 5.30 to 6.30 |
| CCN(CC)C(=O)c1ccc(-c2cnc3c(-c4ccccn4)c(N)nn3c2)nc1 [Compound V-98] | > 6.30 | 5.30 to 6.30 |
| CN1CCC(N(C)C(=O)c2cccc(-c3cnc4c(-c5ccccn5)c(N)nn4c3)n2)CC1 [Compound V-101] | > 6.30 | < 5.30 |
| CCN1CCN(C(=O)c2cccc(-c3cnc4c(-c5ccccn5)c(N)nn4c3)n2)CC1 [Compound V-102] | > 6.30 | < 5.30 |
| C#CCN(C)C(=O)c1cccc(-c2cnc3c(-c4ccccn4)c(N)nn3c2)n1 [Compound V-106] | > 6.30 | < 5.30 |
| Nc1nn2cc(-c3cccc(C(=O)N4CCCC4CO)n3)cnc2c1-c1ccccn1 (centres unmarked) [Compound V-112] | > 6.30 | < 5.30 |
| CN(CCC#N)C(=O)c1cccc(-c2cnc3c(-c4ccccn4)c(N)nn3c2)n1 [Compound V-114] | > 6.30 | < 5.30 |
| CCN(C)C(=O)c1cccc(-c2cnc3c(-c4ccccn4)c(N)nn3c2)n1 [Compound V-115] | > 6.30 | < 5.30 |
| CCN(CCC#N)C(=O)c1cccc(-c2cnc3c(-c4ccccn4)c(N)nn3c2)n1 [Compound V-116] | > 6.30 | < 5.30 |
| CCN(CC)CCN(C)C(=O)c1cccc(-c2cnc3c(-c4ccccn4)c(N)nn3c2)n1 [Compound V-124] | > 6.30 | < 5.30 |
| CCN(CC)C(=O)c1cccc(-c2cnc3c(-c4ccccn4)c(N)nn3c2)n1 [Compound V-127] | > 6.30 | < 5.30 |
| COCCCN1CCN(C(=O)c2ccc(-c3cnc4c(-c5ccccn5)c(N)nn4c3)nc2)CC1 [Compound V-129] | > 6.30 | 5.30 to 6.30 |
| CN(CCCN)C(=O)c1ccc(-c2cnc3c(-c4ccccn4)c(N)nn3c2)nc1 [Compound V-130] | > 6.30 | < 5.30 |
| COC(=O)C1CCCN1C(=O)c1cccc(-c2cnc3c(-c4ccccn4)c(N)nn3c2)n1 (centres unmarked) [Compound V-139] | > 6.30 | < 5.30 |
| Nc1nn2cc(-c3cccc(C(=O)N4CCC[C@H]4CN4CCCC4)n3)cnc2c1-c1ccccn1 [Compound V-154] | > 6.30 | < 5.30 |
| CN(CCCN)C(=O)c1cccc(-c2cnc3c(-c4ccccn4)c(N)nn3c2)n1 [Compound V-155] | > 6.30 | 5.30 to 6.30 |
| CCN(CC)CCN(C)c1ccc(-c2cnc3c(-c4ccccn4)c(N)nn3c2)cn1 [Compound V-173] | > 6.30 | 5.30 to 6.30 |
| Nc1nn2cc(-c3cccc(C(=O)N4CCC[C@@H]4CN4CCCC4)n3)cnc2c1-c1ccccn1 [Compound V-175] | > 6.30 | 5.30 to 6.30 |
| CN(C)CCN(C)C(=O)c1ccc(-c2cnc3c(-c4ccccn4)c(N)nn3c2)cc1 [Compound V-188] | > 6.30 | 5.30 to 6.30 |
| CNCCN(C)C(=O)c1cccc(-c2cnc3c(-c4ccccn4)c(N)nn3c2)c1 [Compound V-189] | > 6.30 | 5.30 to 6.30 |
| CNCCCN(C)C(=O)c1cccc(-c2cnc3c(-c4ccccn4)c(N)nn3c2)c1 [Compound V-190] | > 6.30 | 5.30 to 6.30 |
| CNCCCN(C)C(=O)c1ccc(-c2cnc3c(-c4ccccn4)c(N)nn3c2)cc1 [Compound V-191] | > 6.30 | 5.30 to 6.30 |
| CNC(=O)c1cnc2c(-c3ccccn3)c(N)nn2c1 [Compound V-204] | 5.30 to 6.30 | < 5.30 |
| Nc1nn2cc(C(=O)NC3CCCNC3)cnc2c1-c1ccccn1 (centres unmarked) [Compound V-206] | 5.30 to 6.30 | < 5.30 |
